Assay results published in patent US9724358B2, “Minocycline compounds and methods of use thereof” (Paratek Pharmaceuticals, Inc., priority 2008, dated 2017).

How the values were obtained:
Mixed GPC = experiment: Phase 2 CSSSI study, clinical outcome by organism: Mixed GPC; type: in vivo; settings: ME population
Description: (§1) A randomized (1:1), controlled, evaluator-blinded Phase 2 study comparing 9-[(2,2-dimethyl-propyl amino)-methyl-minocycline (compound 1) and linezolid (Zyvox™) for the treatment of complicated skin and skin structure infections (CSSSI) was conducted. Patients with CSSSI who required initial intravenous (IV) therapy and met inclusion and exclusion criteria were enrolled at 11 centers in the US and were randomized to receive either compound 1 (100 mg Q24 h IV with 200 mg Q24 h oral step-down) or linezolid (600 mg Q12 h IV with 600 mg Q12 h oral step-down).
(§2) An infecting pathogen was defined as an isolate derived from the last positive culture taken from the site of infection under study prior to and including day 1.

B-Strep = experiment: Phase 2 CSSSI study, clinical outcome by organism: B-Strep; type: in vivo, B-streptococci
Description: as §1, §2

Viridans Strep = experiment: Phase 2 CSSSI study, clinical outcome by organism: Viridans Strep; type: in vivo, Viridans Streptococci; settings: ME population
Description: as §1, §2

GNR = experiment: Phase 2 CSSSI study, clinical outcome by organism: GNR; type: in vivo, gram-negative rods; settings: ME population
Description: as §1, §2

[1] = test system: complicated skin and skin structure infections (CSSSI); experiment: Phase 2 study in CSSSI, clinical outcome at test of cure; type: in vivo, human
Description: as §1
All subjects had four structured evaluations: at Enrollment (Baseline); at End of IV Treatment; at End of Treatment; and at 10 to 17 days after last dose of treatment (test of cure (TOC) evaluation). In addition, the blinded investigator saw each subject daily while they were on IV therapy and at least every 3 days while receiving oral treatment to determine whether to continue current treatment, switch from IV to oral therapy, or discontinue treatment.
(§3) At each of the four structured evaluations, the blinded evaluator assessed the subject, with particular attention to scoring the findings at the primary site of infection and obtaining cultures. Clinical and microbiologic outcomes were determined using these assessments. Primary evaluation criteria was safety and tolerability compared with linezolid. Secondary evaluation criteria was efficacy of compound 1 compared to linezolid, as well as pharmacokinetics of compound 1.
At each scheduled evaluation, the blinded evaluator examined the primary site of infection; for patients with multiple non-contiguous areas of infection, the blinded evaluator identified the most severely affected portion at Enrollment and designated that as the primary site of infection. The following information was recorded for each patient: maximal linear dimension of area of continuous involvement of infection; maximal linear dimension of ulceration, if present; semi-qualitative (scale of 0 to 3; none, mild, marked, severe) description of infection for the following features: erythema, edema/induration, fluctuance, necrotic tissue, purulence (including drainage), and tenderness/pain. In addition, at the Enrollment Evaluation, the following were also recorded the anatomical location of the primary site of infection; and the clinical diagnosis of the type of the infection.
Both the investigational drug, compound 1, and the comparator drug, Zyvox™ were administered intravenously and orally. Patients randomized to linezolid may have received aztreonam IV for suspected or documented gram-negative infection. Subjects were initially treated with study drug IV and then switched to oral therapy. The expected duration of IV treatment was up to 7 days; the expected total duration of treatment (IV and oral) was up to 14 days.
For IV administration, the HCl salt of compound 1 for injection was given as 100 mg in 100 ml sterile saline infused over 30 minutes q24 h. For oral administration, compound 1 100 mg capsules were taken fasting as 2 capsules with 8 oz. water q24 h. No food was to be taken for 30 to 60 minutes after dosing and no dairy products for 4 hours.
Linezolid (Zyvox™) 600 mg tablets and pre-mixed 600 mg IV infusion solution (300 ml volume) were obtained from commercial sources. Linezolid 600 mg IV was administered as a 30 minute infusion.
Efficacy analyses were performed on several populations of subjects. Subjects were analyzed for efficacy according to randomization, regardless of treatment administered.
The Intent-to-Treat (ITT) population includes all enrolled subjects who received at least one dose of study medication.
The modified Intent-to-Treat (mITT) population comprises all subjects in the ITT population who have an Infecting Pathogen isolated at prior to administration of the study compound. […]

MRSA = experiment: Phase 2 CSSSI study, clinical outcome by organism: MRSA; type: in vivo, Staphylococcus aureus
Description: as §1, §2

[2] = Phase 2 CSSSI study, safety: ALT level; type: in vivo, human
Description: as §1, §3

Enterococcus = experiment: Phase 2 CSSSI study, clinical outcome by organism: Enterococcus; type: in vivo; settings: ME population
Description: as §1, §2

[3] = as determined in the trials of the Exemplification
[4] = clinically evaluable population
[5] = microbiologically evaluable population
[6] = EOT, ALT abnormal at enrollment
[7] = EOT, ALT within normal limits at enrollment
[8] = TOC, ALT abnormal at enrollment
[9] = TOC, ALT within normal limits at enrollment
[10] = max on treatment, ALT abnormal at enrollment
[11] = max on treatment, ALT within normal limits at enrollment

SMILES: CC(=O)NCC1CN(c2ccc(N3CCOCC3)c(F)c2)C(=O)O1 (centres unmarked) [Linezolid, N-[[3-(3-fluoro-4-morpholinophenyl)-2-oxooxazolidin-5-yl]methyl]acetamide, reference compound]
- Clinical outcome Failure (number) (Mixed GPC): 2
- Clinical outcome Success (number) (Mixed GPC): 9
- Clinical outcome Failure (number) (B-Strep; ME population, B-Strep): 2
- Clinical outcome Success (number) (B-Strep; ME population, B-Strep): 0
- clinical success rate against B. streptococci (B-Strep; [3]): 0%
- Clinical outcome Failure (number) (Viridans Strep): 0
- Clinical outcome Success (number) (Viridans Strep): 6
- Clinical outcome Failure (number) (GNR): 0
- Clinical outcome Success (number) (GNR): 7
- Clinical Failure (% of subjects) ([1]; ITT population): 24.1%
- Clinical Failure (number of subjects) ([1]; ITT population): 26
- Clinical Failure: Failure (% of subjects) ([1]; ITT population): 5.6%
- Clinical Failure: Failure (number of subjects) ([1]; ITT population): 6
- Clinical Failure: Nonevaluable (% of subjects) ([1]; ITT population): 18.5%
- Clinical Failure: Nonevaluable (number of subjects) ([1]; ITT population): 20
- Clinical Success (% of subjects) ([1]; ITT population): 75.9%
- Clinical Success (number of subjects) ([1]; ITT population): 82
- Clinical Failure (% of subjects) [1, 4]: 6.8%
- Clinical Failure (number of subjects) [1, 4]: 6
- Clinical Success (% of subjects) [1, 4]: 93.2%
- Clinical Success (number of subjects) [1, 4]: 82
- Clinical Failure (% of subjects) ([1]; mITT population): 24.4%
- Clinical Failure (number of subjects) ([1]; mITT population): 19
- Clinical Failure: Failure (% of subjects) ([1]; mITT population): 5.1%
- Clinical Failure: Failure (number of subjects) ([1]; mITT population): 4
- Clinical Failure: Nonevaluable (% of subjects) ([1]; mITT population): 19.2%
- Clinical Failure: Nonevaluable (number of subjects) ([1]; mITT population): 15
- Clinical Success (% of subjects) ([1]; mITT population): 75.6%
- Clinical Success (number of subjects) ([1]; mITT population): 59
- Clinical Failure (% of subjects) [1, 5]: 6.3%
- Clinical Failure (number of subjects) [1, 5]: 4
- Clinical Success (% of subjects) [1, 5]: 93.7%
- Clinical Success (number of subjects) [1, 5]: 59
- Clinical outcome Failure (number) (MRSA; ME population, MRSA): 2
- Clinical outcome Success (number) (MRSA; ME population, MRSA): 30
- clinical success rate against MRSA (MRSA; [3]): 93%
- ALT Increase: >2x ULN and 2x baseline (number) [2, 6]: 0
- ALT NS: >ULN and <2x baseline (%) [2, 6]: (63.6%)
- ALT NS: >ULN and <2x baseline (number) [2, 6]: 7
- ALT Within normal limits (%) [2, 6]: (36.4%)
- ALT Within normal limits (number) [2, 6]: 4
- ALT 1x-2x (%) [2, 7]: (10.0%)
- ALT 1x-2x (number) [2, 7]: 9
- ALT 2x-3x (%) [2, 7]: (1.1%)
- ALT 2x-3x (number) [2, 7]: 1
- ALT >3x (%) [2, 7]: (1.1%)
- ALT >3x (number) [2, 7]: 1
- ALT Within normal limits (%) [2, 7]: (87.8%)
- ALT Within normal limits (number) [2, 7]: 79
- ALT Increase: >2x ULN and 2x baseline (%) [2, 8]: (8.3%)
- ALT Increase: >2x ULN and 2x baseline (number) [2, 8]: 1
- ALT NS: >ULN and <2x baseline (%) [2, 8]: (50.0%)
- ALT NS: >ULN and <2x baseline (number) [2, 8]: 6
- ALT Within normal limits (%) [2, 8]: (41.7%)
- ALT Within normal limits (number) [2, 8]: 5
- ALT 1x-2x (%) [2, 9]: (5.1%)
- ALT 1x-2x (number) [2, 9]: 4
- ALT 2x-3x (number) [2, 9]: 0
- ALT >3x (number) [2, 9]: 0
- ALT Within normal limits (%) [2, 9]: (94.9%)
- ALT Within normal limits (number) [2, 9]: 75
- ALT Increase: >2x ULN and 2x baseline (%) [2, 10]: (16.7%)
- ALT Increase: >2x ULN and 2x baseline (number) [2, 10]: 2
- ALT NS: >ULN and <2x baseline (%) [2, 10]: (66.7%)
- ALT NS: >ULN and <2x baseline (number) [2, 10]: 8
- ALT Within normal limits (%) [2, 10]: (16.7%)
- ALT Within normal limits (number) [2, 10]: 2
- ALT 1x-2x (%) [2, 11]: (14.7%)
- ALT 1x-2x (number) [2, 11]: 14
- ALT 2x-3x (%) [2, 11]: (5.3%)
- ALT 2x-3x (number) [2, 11]: 5
- ALT >3x (%) [2, 11]: (1.1%)
- ALT >3x (number) [2, 11]: 1
- ALT Within normal limits (%) [2, 11]: (78.9%)
- ALT Within normal limits (number) [2, 11]: 75
- Clinical outcome Failure (number) (Enterococcus): 0
- Clinical outcome Success (number) (Enterococcus): 3
